The results in this text go back to ChEMBL document CHEMBL3608282 (Bioorg Med Chem Lett, 2015).

In data set [1] the test system is Hepatitis C virus. The data set can be described thus: Antiviral activity against wild type HCV genotype 1b infected in human HuH7 cells assessed as reduction in viral RNA replication. In kind it is functional, organism-based, Hepacivirus hominis. To be noted: Huh-7.
For data set [2], the system named is Hepatitis C virus. The data set is described as follows: Antiviral activity against HCV genotype 2a. In kind it is functional, organism-based, Hepacivirus hominis.
Data set [3] has as its system Hepatitis C virus. The data set is described as follows: Antiviral activity against HCV genotype 1b expressing NS5A L31V mutant infected in human HuH7 cells assessed as reduction in viral RNA replication. In kind it is functional, organism-based, Hepacivirus hominis. To be noted: Huh-7.
In data set [4] the test system is Hepatitis C virus. The data set can be described thus: Antiviral activity against HCV genotype 1b expressing NS5A Y93H mutant infected in human HuH7 cells assessed as reduction in viral RNA replication. The following applies: Huh-7. It counts as functional, organism-based, Hepacivirus hominis.
The test system of data set [5] is Hepatitis C virus. The data set can be described thus: Antiviral activity against HCV genotype 1a. It counts as functional, organism-based, Hepacivirus hominis. The following applies: subtype 1a.
For data set [6], the system named is Hepatitis C virus. The data set can be described thus: Antiviral activity against HCV genotype 1b infected in human HuH7 cells assessed as reduction in viral RNA replication. In kind it is functional, organism-based, Hepacivirus hominis. To be noted: Huh-7.
Data set [7] can be described thus: Cytotoxicity against human HuH7 cells. In kind it is cell-based. To be noted: huh-7.
Another data set concerns PBMC. The data set is described as follows: Cytotoxicity against PBMC (unknown origin). It counts as cell-based.
Data set [8] is described as follows: Therapeutic index, ratio of CC50 for african green monkey Vero cells to EC50 for HCV genotype 1b. In kind it is cell-based. The following applies: Vero cells (CC50) versus HCV genotype 1b (EC50).
Data set [9] in a line: Therapeutic index, ratio of CC50 for human HuH7 cells to EC50 for HCV genotype 1b. The following applies: HuH7 cells (CC50) versus HCV genotype 1b (EC50). In kind it is cell-based, Huh-7.
Data set [10] is described as follows: Therapeutic index, ratio of CC50 for human CEM cells to EC50 for HCV genotype 1b. In kind it is cell-based, CCRF-CEM. To be noted: CEM cells (CC50) versus HCV genotype 1b (EC50).
Data set [11] is described as follows: Therapeutic index, ratio of CC50 for PBMC (unknown origin) to EC50 for HCV genotype 1b. To be noted: PBMC (CC50) versus HCV genotype 1b (EC50).
In another data set the test system is Vero. The data set can be described thus: Cytotoxicity against african green monkey Vero cells. It counts as cell-based. To be noted: chlorocebus sabaeus.
Another data set deals with CCRF-CEM. The data set is described as follows: Cytotoxicity against human CEM cells. It counts as cell-based.
Data set [12] relates to Hepatitis C virus. The data set is described as follows: Resistance index, ratio of EC50 for HCV genotype 1b expressing NS5A L31V mutant infected in human HuH7 cells to EC50 for wild type HCV genotype 1b infected in human HuH7 cells. In kind it is functional, Hepacivirus hominis, Huh-7.

Turning to `COC(=O)N[C@H](C(=O)N1CCC[C@H]1c1nc(-c2ccc(-c3ccc(-c4c[nH]c([C@@H]5CCCN5C(=O)[C@@H](NC(=O)OC)C(C)C)n4)cc3)cc2)c[nH]1)C(C)C`, the EC50 was 0.048 nM in the data set on Hepatitis C virus [1]; 0.024 nM in the data set on Hepatitis C virus [2]; 0.035 nM with Hepatitis C virus [3]; 0.18 nM in the data set with Hepatitis C virus [4]; 0.048 nM in the data set with Hepatitis C virus [5]; 0.004 nM with Hepatitis C virus [6]. In the data set with Hepatitis C virus [6], the EC90 came to 0.02 nM. The compound further displayed a CC50 in [7] above 15000 nM.
Take `COC(=O)N[C@@H](CSC)C(=O)N1CCC[C@H]1c1ncc(-c2ccc(-c3ccc(-c4cnc([C@@H]5CCCN5C(=O)[C@@H](NC(=O)OC)C(C)C)[nH]4)cc3)cc2)[nH]1`: the CC50 is 31000 nM in the data set with PBMC, 18000 nM in the data set with Vero and 11000 nM with CCRF-CEM. Further, in the data set on Hepatitis C virus [6], the EC50 came to 0.061 nM. Also, in the data set on Hepatitis C virus [6], the EC90 stood at 0.1 nM. Moreover, the selectivity ratio in [8], in [9], in [10] and in data set [11] was above 1e+06 throughout.
As for `COC(=O)N[C@@H](CSC(C)(C)C)C(=O)N1CCC[C@H]1c1ncc(-c2ccc(-c3ccc(-c4cnc([C@@H]5CCCN5C(=O)[C@@H](NC(=O)OC)C(C)C)[nH]4)cc3)cc2)[nH]1`, the EC50 in the data set with Hepatitis C virus [1] is 0.14 nM; in the data set on Hepatitis C virus [2], 0.055 nM; in the data set on Hepatitis C virus [3], 0.072 nM; in the data set on Hepatitis C virus [4], at least 0.33 nM; with Hepatitis C virus [5] it was 0.14 nM; in the data set with Hepatitis C virus [6], 0.03 nM. Besides, the CC50 with PBMC is 18000 nM; with Vero it was 39000 nM; in [7], above 330000 nM; in the data set with CCRF-CEM, 10000 nM. Also, the EC90 in the data set on Hepatitis C virus [6] was 0.1 nM. The selectivity ratio in [8], in data set [9], in data set [10] and in [11] was above 1e+06 in each case.
In the case of `COC(=O)N[C@@H](CSCc1ccccc1)C(=O)N1CCC[C@H]1c1ncc(-c2ccc(-c3ccc(-c4cnc([C@@H]5CCCN5C(=O)[C@@H](NC(=O)OC)C(C)C)[nH]4)cc3)cc2)[nH]1`, the EC50 with Hepatitis C virus [1] is 0.1 nM; in the data set with Hepatitis C virus [2] it was 0.039 nM; in the data set with Hepatitis C virus [3], 0.39 nM; in the data set on Hepatitis C virus [4], above 0.33 nM; with Hepatitis C virus [5], 0.1 nM; in the data set on Hepatitis C virus [6], 0.02 nM. Also, the CC50 in the data set on PBMC was above 100000 nM; with Vero it was above 100000 nM; in data set [7], above 330000 nM; with CCRF-CEM, 82000 nM. The EC90 in the data set on Hepatitis C virus [6] came out at 0.032 nM. In addition, the selectivity ratio in data set [8], in [9], in [10] and in [11] was above 1e+06 throughout. For the same compound, in the data set on Hepatitis C virus [12], the “Ratio EC50” value is listed as above 3.
On to `COC(=O)N[C@@H](CCSC)C(=O)N1CCC[C@H]1c1ncc(-c2ccc(-c3ccc(-c4cnc([C@@H]5CCCN5C(=O)[C@@H](NC(=O)OC)C(C)C)[nH]4)cc3)cc2)[nH]1`, for which the EC50 is 0.059 nM in the data set on Hepatitis C virus [1]; 0.027 nM in the data set with Hepatitis C virus [2]; 0.05 nM in the data set on Hepatitis C virus [3]; above 0.11 nM in the data set with Hepatitis C virus [4]; 0.059 nM in the data set with Hepatitis C virus [5]; 0.03 nM with Hepatitis C virus [6]. For the same compound, the CC50 in the data set on PBMC is 41000 nM; with Vero, 40000 nM; in [7], above 330000 nM; with CCRF-CEM it was 11000 nM. Further, in the data set with Hepatitis C virus [6], the concentration for an effect of 90% (EC90) was 0.1 nM. The selectivity ratio in data set [8], in [9], in [10] and in data set [11] was above 1e+06 throughout.
Regarding `COC(=O)N[C@@H](C[S+]([O-])Cc1ccccc1)C(=O)N1CCC[C@H]1c1ncc(-c2ccc(-c3ccc(-c4cnc([C@@H]5CCCN5C(=O)[C@@H](NC(=O)OC)C(C)C)[nH]4)cc3)cc2)[nH]1` (stereo partly specified), the results for the CC50 with PBMC, in the data set with Vero and in the data set with CCRF-CEM were 42000 nM, 11000 nM and 11000 nM, respectively. Moreover, the EC50 in the data set with Hepatitis C virus [6] was found to be 0.1 nM. In addition, the EC90 in the data set on Hepatitis C virus [6] was 0.3 nM. In addition, the selectivity ratio in data set [8], in [9], in data set [10] and in data set [11] was above 1e+06 each time.
With `COC(=O)N[C@@H](CS(=O)(=O)Cc1ccccc1)C(=O)N1CCC[C@H]1c1ncc(-c2ccc(-c3ccc(-c4cnc([C@@H]5CCCN5C(=O)[C@@H](NC(=O)OC)C(C)C)[nH]4)cc3)cc2)[nH]1`, the CC50 with PBMC was 21000 nM; in the data set with Vero, above 100000 nM; in the data set with CCRF-CEM, above 100000 nM. Besides, in the data set with Hepatitis C virus [6], the EC50 came to 0.02 nM. For the same compound, the EC90 in the data set on Hepatitis C virus [6] came to 0.1 nM. Also, the selectivity ratio in data set [8], in [9], in data set [10] and in [11] was above 1e+06 throughout.
